Some test systems named below: 786-0; A498; A549; BT-549; CCRF-CEM; COLO 205; DU-145; HCT-15; IGROV-1; LOX IMVI; MDA-MB-435; MDA-N; MOLT-4; Malme-3M; NCI-H226; NCI/ADR-RES; RPMI-8226; SK-MEL-5; SNB-19; U-251.
Common to all, as to experiment: NCI-60 cell line screen, 48 h

Each structure is given as a SMILES string.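 Following 48 hours of exposure in 96-well plates, responses at five concentrations were used to interpolate endpoints linearly. Here, GI50 denotes the concentration required for 50% inhibition of growth.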 Activity calls are given as the source filed them. No stated cut-off is given here; in the data, active = GI50 up to about 1.1 µM and inactive = higher.

In the case of `S=C(Nc1ccc2c(c1)Cc1ccccc1-2)Nc1ccc2c(c1)Cc1ccccc1-2`, the GI50 in the experiment on 786-0 was > 100 µM (inactive); in the experiment with A498 it was > 100 µM (inactive); in the experiment on A549 it was > 100 µM (inactive); in the experiment with BT-549, > 100 µM (inactive); with CCRF-CEM, 11.4 µM (inactive); with COLO 205, > 100 µM (inactive). The GI50 in the experiment with DU-145 is > 100 µM (inactive); with HCT-15, more than 100 µM; in the experiment with IGROV-1, > 100 µM (inactive); in the experiment with LOX IMVI it was > 100 µM (inactive); in the experiment with MDA-MB-435 it was > 100 µM (inactive); in the experiment with MDA-N it was > 100 µM (inactive). Besides, the GI50 with MOLT-4 was 15 µM (inactive); in the experiment with Malme-3M, > 100 µM (inactive); in the experiment on NCI-H226 it was > 100 µM (inactive); with NCI/ADR-RES, > 100 µM (inactive); in the experiment with RPMI-8226 it was > 100 µM (inactive); with SK-MEL-5, > 100 µM (inactive). For the same compound, the GI50 in the experiment on SNB-19 and with U-251 was > 100 µM (inactive) each time.
For the compound `CCCCNc1nc2ccccc2c2c1ncn2CC(C)C`, the GI50 in the experiment with 786-0, in the experiment on A498, in the experiment on A549, with BT-549, with CCRF-CEM and in the experiment with COLO 205 was > 100 µM (inactive) throughout. Besides, the GI50 is > 100 µM (inactive) with DU-145; more than 100 µM in the experiment on HCT-15; > 100 µM (inactive) with IGROV-1; > 100 µM (inactive) in the experiment on LOX IMVI; > 100 µM (inactive) in the experiment with MDA-MB-435; > 100 µM (inactive) in the experiment on MDA-N. Also, the GI50 with MOLT-4, in the experiment on Malme-3M, in the experiment with NCI-H226, in the experiment with NCI/ADR-RES, in the experiment with RPMI-8226 and with SK-MEL-5 was > 100 µM (inactive) in each case. Besides, the GI50 in the experiment on SNB-19 and with U-251 was > 100 µM (inactive) in each case.
On to `Cc1ccc(S(=O)(=O)N2CC2CCCCC=O)cc1` (stereo not given), for which the GI50 was 40.6 µM (inactive) in the experiment on 786-0; > 100 µM (inactive) in the experiment with A498; > 100 µM (inactive) in the experiment with A549; > 100 µM (inactive) in the experiment with BT-549; 21.6 µM (inactive) in the experiment on CCRF-CEM; > 100 µM (inactive) with COLO 205. Moreover, the GI50 is > 100 µM (inactive) in the experiment with DU-145; more than 100 µM in the experiment with HCT-15; 80.9 µM (inactive) with IGROV-1; 20.1 µM (inactive) in the experiment on LOX IMVI; > 100 µM (inactive) with MDA-MB-435; > 100 µM (inactive) in the experiment with MDA-N. Besides, the GI50 in the experiment on MOLT-4 was 37.4 µM (inactive); in the experiment with Malme-3M it was > 100 µM (inactive); in the experiment with NCI-H226 it was > 100 µM (inactive); with NCI/ADR-RES, > 100 µM (inactive); with RPMI-8226, 37.8 µM (inactive); in the experiment with SK-MEL-5, 54.2 µM (inactive). Further, the GI50 in the experiment with SNB-19 is > 100 µM (inactive); in the experiment on U-251 it was 27.4 µM (inactive).
For the compound `C[C@]1(O)CC(=O)c2c(c(-c3ccc4cc5c(c(O)c4c3O)C(=O)C[C@@](C)(O)C5)c3cccc(O)c3c2O)C1`, the GI50 is 5.37 µM (inactive) in the experiment on 786-0; 5.42 µM (inactive) in the experiment on A498; 4.24 µM (inactive) in the experiment on A549; 5.89 µM (inactive) with BT-549; 6.71 µM (inactive) in the experiment with CCRF-CEM; 1.79 µM (inactive) with COLO 205. Also, the GI50 in the experiment with DU-145 was 5.53 µM (inactive); with HCT-15, 3.76 µM; in the experiment with IGROV-1 it was 4.67 µM (inactive); in the experiment with LOX IMVI it was 6.37 µM (inactive); in the experiment with MDA-MB-435, 7.05 µM (inactive); in the experiment on MDA-N, 4.56 µM (inactive). In addition, the GI50 was 9.44 µM (inactive) in the experiment on MOLT-4; 6.35 µM (inactive) in the experiment with Malme-3M; 3.85 µM (inactive) in the experiment on NCI-H226; 5.15 µM (inactive) in the experiment on NCI/ADR-RES; 4.67 µM (inactive) with RPMI-8226; 3.66 µM (inactive) in the experiment with SK-MEL-5. Also, the GI50 in the experiment on SNB-19 is 6.52 µM (inactive); with U-251, 4.02 µM (inactive).
Consider `O=c1nc(N2CCN(c3ccccc3)CC2)ccn1C1OC(CO)C(O)C1O` (stereo not given), for which the GI50 was 86.3 µM (inactive) with 786-0; > 100 µM (inactive) with A498; > 100 µM (inactive) with A549; 53.2 µM (inactive) with BT-549; 35.6 µM (inactive) with CCRF-CEM; 97.3 µM (inactive) in the experiment on COLO 205. Moreover, the GI50 was > 100 µM (inactive) in the experiment with DU-145; more than 100 µM with HCT-15; 60.5 µM (inactive) in the experiment with IGROV-1; 94.2 µM (inactive) in the experiment with LOX IMVI; 32.2 µM (inactive) with MDA-MB-435; 56.8 µM (inactive) in the experiment on MDA-N. The GI50 in the experiment with MOLT-4 is 49.7 µM (inactive); in the experiment with Malme-3M, > 100 µM (inactive); in the experiment with NCI-H226, > 100 µM (inactive); in the experiment on NCI/ADR-RES, > 100 µM (inactive); in the experiment with RPMI-8226, 36.9 µM (inactive); in the experiment with SK-MEL-5 it was 42.6 µM (inactive). Moreover, the figures for the GI50 in the experiment with SNB-19 and in the experiment with U-251 were > 100 µM (inactive) and 52.2 µM (inactive), respectively.
For `O=C(Oc1ccccn1)c1cc2cc(CCl)ccc2oc1=O`, the GI50 in the experiment on 786-0 was 19.5 µM (inactive); in the experiment on A498, 70.6 µM (inactive); with A549, > 100 µM (inactive); with BT-549 it was 22.3 µM (inactive); with CCRF-CEM, 30.4 µM (inactive); with COLO 205, 51.2 µM (inactive). In addition, the GI50 in the experiment on DU-145 was 42.8 µM (inactive); in the experiment with HCT-15, 39.4 µM; in the experiment with IGROV-1, > 100 µM (inactive); in the experiment with LOX IMVI it was 33.3 µM (inactive); in the experiment on MDA-MB-435, 51.3 µM (inactive); with MDA-N, 43.5 µM (inactive). Further, the GI50 in the experiment with MOLT-4 was 31.2 µM (inactive); with Malme-3M, 15.7 µM (inactive); in the experiment on NCI-H226, 71.1 µM (inactive); in the experiment with NCI/ADR-RES, 27 µM (inactive); in the experiment on RPMI-8226, 35.6 µM (inactive); in the experiment with SK-MEL-5, 51.8 µM (inactive). Moreover, the GI50 with SNB-19 is 27 µM (inactive); in the experiment on U-251, 18.5 µM (inactive).
Take `CC(=O)O[C@H]1C[C@H](O[C@H]2[C@@H](O)C[C@H](O[C@H]3[C@@H](O)C[C@H](O[C@H]4CC[C@@]5(C)[C@H](CC[C@@H]6[C@@H]5CC[C@]5(O)[C@@H](C7=CC(=O)OC7)CC[C@]65O)C4)O[C@@H]3C)O[C@@H]2C)O[C@H](C)[C@H]1O[C@@H]1O[C@H](CO)[C@@H](O)[C@H](O)[C@H]1O`: the GI50 in the experiment on 786-0 is 0.258 µM (active); with A498, 0.383 µM (active); with A549, 0.0581 µM (active); in the experiment on BT-549, 0.304 µM (active); in the experiment on CCRF-CEM it was 0.116 µM (active); in the experiment on COLO 205, 0.711 µM (active). The GI50 is 0.243 µM (active) in the experiment on DU-145; 0.293 µM in the experiment on HCT-15; 0.356 µM (active) with IGROV-1; 0.271 µM (active) in the experiment with LOX IMVI; 0.624 µM (active) in the experiment with MDA-MB-435; 0.45 µM (active) in the experiment with MDA-N. Further, the GI50 is 0.0262 µM (active) in the experiment with MOLT-4; 0.403 µM (active) in the experiment on Malme-3M; 1.29 µM (inactive) in the experiment on NCI-H226; 0.237 µM (active) with NCI/ADR-RES; 0.462 µM (active) with RPMI-8226; 0.223 µM (active) in the experiment with SK-MEL-5. Further, the GI50 is 0.771 µM (active) in the experiment with SNB-19 and 0.427 µM (active) in the experiment with U-251.
Take `O=C1C=CC(=O)N1c1ccc(I)cc1`: the GI50 with 786-0 is 7.53 µM (inactive); with A498 it was 20.2 µM (inactive); in the experiment on A549 it was 22.9 µM (inactive); in the experiment on BT-549, 19 µM (inactive); with CCRF-CEM, 3.1 µM (inactive); in the experiment on COLO 205 it was 6.18 µM (inactive). For the same compound, the GI50 is 19.2 µM (inactive) with DU-145; 11.5 µM in the experiment on HCT-15; 24.9 µM (inactive) in the experiment with IGROV-1; 19.9 µM (inactive) in the experiment with LOX IMVI; 16.4 µM (inactive) in the experiment on MDA-MB-435; 15.2 µM (inactive) in the experiment with MDA-N. For the same compound, the GI50 in the experiment on MOLT-4 was 2.56 µM (inactive); in the experiment with Malme-3M it was 17.9 µM (inactive); with NCI-H226 it was 22.9 µM (inactive); in the experiment on NCI/ADR-RES, 29.9 µM (inactive); in the experiment with RPMI-8226, 6.11 µM (inactive); in the experiment on SK-MEL-5 it was 18.6 µM (inactive). Besides, the GI50 with SNB-19 was > 44.8 µM (inactive); in the experiment on U-251 it was 23.6 µM (inactive).
As for `CNc1cccnc1/C=N/N=C(/N)S`, the GI50 is 0.38 µM (active) with 786-0; 5.35 µM (inactive) in the experiment with A498; 2.61 µM (inactive) in the experiment on A549; 1.71 µM (inactive) in the experiment with BT-549; 0.363 µM (active) with CCRF-CEM; 2.13 µM (inactive) with COLO 205. The GI50 was 0.685 µM (active) in the experiment with DU-145; 2.78 µM in the experiment with HCT-15; > 5.55 µM (inactive) in the experiment with IGROV-1; 2.02 µM (inactive) with LOX IMVI; 2.41 µM (inactive) with MDA-MB-435; 4.69 µM (inactive) with MDA-N. Besides, the GI50 in the experiment with MOLT-4 is 1.5 µM (inactive); in the experiment with Malme-3M, 1.95 µM (inactive); in the experiment on NCI-H226, 2.75 µM (inactive); in the experiment on NCI/ADR-RES it was 3.01 µM (inactive); in the experiment on RPMI-8226, > 4.59 µM (inactive); in the experiment on SK-MEL-5, 3.2 µM (inactive). The GI50 in the experiment with SNB-19 is > 10 µM (inactive); in the experiment with U-251 it was 1.87 µM (inactive).

The values above are taken from ChEMBL document CHEMBL1201862, “PubChem BioAssay data set” (2004).
